Experimental data as given in EP3521435A1, “A HIGH STRINGENCY SELECTION SYSTEM FOR PROTEIN EXPRESSION IN PROLINE-AUXOTROPHIC CELLS” (Bayer AG, priority 2018, dated 2019).

Key:
murine P5CS long isoform = molecular target: T1, murine P5CS long isoform (Mus musculus, UniProt Q9Z110); conditions: Hu et al.; cited from earlier work
T1 sequence (Q9Z110 1-795): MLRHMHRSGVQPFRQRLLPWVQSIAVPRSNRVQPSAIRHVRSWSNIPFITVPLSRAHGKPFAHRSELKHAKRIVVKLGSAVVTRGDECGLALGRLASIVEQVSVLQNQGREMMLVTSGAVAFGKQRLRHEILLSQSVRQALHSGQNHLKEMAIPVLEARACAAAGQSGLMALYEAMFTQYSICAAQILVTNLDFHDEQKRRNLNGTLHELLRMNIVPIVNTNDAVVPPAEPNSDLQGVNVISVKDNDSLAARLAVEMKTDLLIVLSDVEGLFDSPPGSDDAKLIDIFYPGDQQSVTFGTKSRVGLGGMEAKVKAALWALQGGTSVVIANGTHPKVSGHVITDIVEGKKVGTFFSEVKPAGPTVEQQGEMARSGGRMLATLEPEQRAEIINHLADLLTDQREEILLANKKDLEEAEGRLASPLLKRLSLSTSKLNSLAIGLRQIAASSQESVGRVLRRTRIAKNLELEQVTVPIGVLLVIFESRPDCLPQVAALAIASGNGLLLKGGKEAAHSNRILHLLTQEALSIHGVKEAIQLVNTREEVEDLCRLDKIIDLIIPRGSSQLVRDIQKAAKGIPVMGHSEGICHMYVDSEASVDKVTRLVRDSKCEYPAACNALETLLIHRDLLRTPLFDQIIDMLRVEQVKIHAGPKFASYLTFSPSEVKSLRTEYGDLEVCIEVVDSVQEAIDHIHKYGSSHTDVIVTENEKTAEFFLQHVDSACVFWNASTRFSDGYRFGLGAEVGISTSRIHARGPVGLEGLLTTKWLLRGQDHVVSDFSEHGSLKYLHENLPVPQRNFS

CHO-K1 cells = test: Cell viability post-transfection of transfected cell populations under selection conditions; type: cell-based, Chinese hamster
Protocol: To efficiently test the impact of different procedures on improving selection stringency, experimental testing in stable cell populations was performed. As test molecules, enhanced green fluorescent protein (GFP) as well as a human IgG1 were chosen. CHO-K1 cells adapted to growth in suspension in defined medium were obtained from SAFC and cultivated in EX-CELL CD CHO Fusion medium (SAFC 14365C). Custom-made EX-CELL CD CHO Fusion medium without L-Proline (Pro) and without L-Ornithine (Orn) ("proline-free medium") was obtained from SAFC. The expression vector system was based on modified versions of "CET 1019 AS-puro-SceI" and "CET 1019 AD-puro-SceI" for GFP and human IgG1, respectively, from Merck-Millipore, containing the Puromycin selection marker (Puromycin N-acetyl-transferase) known to exert a high selection stringency. To minimize variations in cell populations derived from using different transfections or different vectors, the first series of experiments were conducted using vectors into which a P5CS expression cassette was cloned upstream of a UCOE element, in addition to the Puromycin selection marker present downstream of a gene of interest. This way, it was possible to pool different transfections using the same vector to obtain a common starting point, and split the mixture according to different selection conditions, minimizing any variations that are not due to selection conditions themselves. Expression of long and short isoform of murine P5CS (Protein: Delta-1-pyrroline-5-carboxylate synthase; Gene: Aldh18a1; UniProtKB accession number: Q9Z110-1 & Q9Z110-2) was driven by a SV40 promoter. A SV40 polyadenylation sequence was used at the 3' end of the gene. More details can be found in Table 1. Typically, CHO cells were cultivated in EX-CELL CD CHO Fusion medium containing 6 mM GlutaMAX (Thermo Fisher, 35050-38) ("CD-Fusion medium") at 37 °C with 5% CO2. Cells were grown to logarithmic phase under shaking conditions for transfections. 1e7 cells/cuvette were transfected using nucleofection (Amaxa Nucleofector II, following the manufacturer's recommendations) with 5 µg of linearized DNA. After transfection, cells were taken up in 1 ml medium and transferred into 1 well of a 6 well microtiter plate (MTP) already containing 1 ml medium. The cells were incubated for 24 h without shaking, after which 9 ml medium were added and cells were washed (either in standard or proline-free medium). Multiple transfections were pooled, if applicable. Cells were adjusted to 2e5 viable cells/ml and 10 ml were transferred to T-25 flasks. Reference cell populations were selected using 10 µg/ml Puromycin in CD-Fusion medium. For P5CS-based selection, EX-CELL CD CHO Fusion medium (custom-made, SAFC) containing 6 mM GlutaMAX without proline and without ornithine was used ("proline-free" or "CD-Fusion w/o Pro" medium), with or without additional selection pressure.
Cell viability of the different populations was monitored over time. As soon as cell populations appeared to recover from selection pressure, cells were transferred to Shake Flask or TubeSpins for expansion in suspension under shaking conditions. Subsequently, stable cell populations transfected with IgG were seeded at 2e5 viable cells/ml for batch fermentation without selection pressure (i.e. standard CD-Fusion medium containing proline and no other selective agents). The cells were cultivated for 5-10 days, viable cell densities and productivity were monitored over time. IgG titers were determined using Poros A-HPLC method. Typically, final batch titers were recorded at a time point at which majority of cultures had around 70% viability. Stable cell populations transfected with GFP vector were subjected to analysis by flow cytometry using Guava easyCyte 8HT Benchtop Flow Cytometer (Millipore). 250 µl of cell culture were transferred to 96 MTP and washed with PBS. Dead cells were excluded from analysis using propidium iodide (PI). […]

[1] = MOCK, CD-Fusion w/o Pro + 5 mM Orn

Structure (SMILES): NCCC[C@H](N)C(=O)O [Orn, L-Ornithine]
- Ornithine inhibition (murine P5CS long isoform): insensitive
- Viability on day 12 post-transfection (CHO-K1 cells; [1]): 45%
- Viability on day 14 post-transfection (CHO-K1 cells; [1]): 43%
- Viability on day 14 post-transfection (CHO-K1 cells; pJF1555, CD-Fusion w/o Pro + 0.2 mM Orn): 83%
- Viability on day 14 post-transfection (CHO-K1 cells; pJF1555, CD-Fusion w/o Pro + 0.2 mM Orn + 10 µg/ml Puromycin): 73%
- Viability on day 12 post-transfection (CHO-K1 cells; pJF1555, CD-Fusion w/o Pro + 0.25 mM Ornithine): 88%
- Viability on day 12 post-transfection (CHO-K1 cells; pJF1555, CD-Fusion w/o Pro + 0.5 mM Ornithine): 87%
- Viability on day 14 post-transfection (CHO-K1 cells; pJF1555, CD-Fusion w/o Pro + 1 mM Orn): 87%
- Viability on day 14 post-transfection (CHO-K1 cells; pJF1555, CD-Fusion w/o Pro + 1 mM Orn + 10 µg/ml Puromycin): 75%
- Viability on day 12 post-transfection (CHO-K1 cells; pJF1555, CD-Fusion w/o Pro + 1 mM Ornithine): 91%
- Viability on day 12 post-transfection (CHO-K1 cells; pJF1555, CD-Fusion w/o Pro + 2 mM Ornithine): 49%
- Viability on day 12 post-transfection (CHO-K1 cells; pJF1555, CD-Fusion w/o Pro + 3 mM Ornithine): 36%
- Viability on day 12 post-transfection (CHO-K1 cells; pJF1555, CD-Fusion w/o Pro + 4 mM Ornithine): 55%
- Viability on day 14 post-transfection (CHO-K1 cells; pJF1555, CD-Fusion w/o Pro + 5 mM Orn): 51%
- Viability on day 14 post-transfection (CHO-K1 cells; pJF1555, CD-Fusion w/o Pro + 5 mM Orn + 10 µg/ml Puromycin): 13%
- Viability on day 12 post-transfection (CHO-K1 cells; pJF1555, CD-Fusion w/o Pro + 5 mM Ornithine): 53%
- concentration at which recovery kinetics were affected (CHO-K1 cells; pJF1555, proline-free medium, Table 8): ≥ 2 mM
